From patent US12351819B2, “Method for removing undifferentiated pluripotent stem cells” (priority 2017, dated 2025)

Columns and labels:
hESCs (H9) = details: for cytotoxic effect (LDH release) in hESCs: 2.5 μM, 24 hours, vs DMSO; for LDH assay positive, hESCs: Table 1
Procedure: The hESC line H9 was purchased from WiCells (Madison, WI, USA)^27. Another hESC line, HUES6, was kindly provided by Dr. Douglas A. Melton (Harvard University, Boston, MA, USA)^28. Cells were maintained on the feeder cells and cultured in Dulbecco's modified Eagle's medium (DMEM)/F12 supplemented with 20% knockout serum replacement, 2 mM L-glutamine, 1% nonessential amino acids, 4 ng/mL human bFGF, and 0.1 mM 2-mercaptoethanol. For the feeder cells culture, C57BL/6 mouse embryonic fibroblasts (MEF) were cultured in the DMEM with 10% FBS and treated cells with 0.01 mg/ml mitomycin C 2-6 hours for inactivation. For the feeder-free culture, hESCs were seeded on the Matrigel Matrix (BD Biosciences, San Jose, CA, USA) coated culture plates and maintained by conditioned medium of MEF (C57BL/6). hBMMSCs were cultured in mesenPRO RS™ kit (Life Technologies, Camarillo, CA, USA). All cells were cultured in a humidified atmosphere containing 5% CO2 at 37° C.
(§1) The supernatants of cells treated with digoxin […], lanatoside C 2.5 μm, or DMSO solvent control for 24 hours were harvested. The released LDH was measured using CytoTox 96 […] assay according to the manufacture's instruction (Promega, Southampton, UK). The supernatants and reagents were incubated at room temperature for 20 minutes and then the reaction was stopped by Stop Solution. The absorbance at 490 nm was measured using a plate-reading spectrophotometer (Benchmark Plus Microplate Spectrophotometer System, BIO-RAD, CA, USA).

H9 hESC-MSCs = details: 2.5 μM, 24 hours
Procedure: as §1
According to the report from Dr. Xu and colleagues^30, hESCs were cultured with 10 ng/ml BMP4 and 1 μM of A8301 for 5 days. Next, the cells were passaged on the gelatin-coated plate and the culture medium was switched to MSC culture medium [Minimum Essential Medium Eagle Alpha Modification (αMEM) medium supplemented with 20% fetal bovine serum (FBS), 1-glutamine (Gluta-MAX), 1× nonessential amino acids]. Cells were expanded within passage 5, and CD73^+ (11-0793, ThermoFisher Scientific) and CD105^+ (12-1057, ThermoFisher Scientific) double positive cells were sorted.
hESC-derived MSCs were trypsinized and washed with PBS. Then cells were incubated with anti-human CD73 FITC (ThermoFisher Scientific) and anti-human CD105 PE (ThermoFisher Scientific) for 15 minutes at 4° C. Cells were washed cells with PBS for three times. CD73^+/CD105^+ cells were sorted with the cell sorter (BD FACSAria II, BD Biosciences). Sorted cells were maintained in MSC culture medium.

hiPSCs = details: Table 1; hiPSCs
Procedure: as §1
hiPSC-derived endothelial cells were prepared according in a previous report^34. The hiPSCs were maintained in mTeSR 1 medium ([…] Technologies, Vancouver, Canada) on VTN-N coated plates (Thermo, Wilmington, DE, USA). First, for the stepwise induction of differentiation, we performed a mesoderm induction of hiPSCs seeded in mesoderm induction medium for 48 hours (basal medium with […], […], and 2 ng/ml of Activin A; basal medium was composed of 12 g/L of DMEM/F-12, 3.56 g/L of HEPES, 1.742 g/L of sodium bicarbonate, 14 μg/L of sodium selenite, 10.7 mg/L of recombinant transferrin, 19.4 mg/L of recombinant insulin, and 64 mg/L of L-Ascorbic acid 2-phosphate sesquimagnesium salt hydrate). Second, for the mesoderm to endothelium transition, mesoderm cells were reseeded in vasculogenic medium (basal medium with 2 mg/ml of PVA plus 20 ng/ml of hVEGF-A) for an additional 72 hours. All differentiated cells were plated on VTN pre-coated culture plate dishes. The endothelial cells were analyzed on day 5 by flow cytometry staining with the CD31 (PECAM1, ThermoFisher Scientific, Wilmington, DE, USA) and CD144 (CDH5, ThermoFisher Scientific) antibodies.

[1] = tested on: hESC-hepatocyte endoderm cells; test: LDH cytotoxicity assay in hESC-derived hepatocyte endoderm; format: cell-based, human; details: Table 1
Procedure: This protocol followed a method previously published in Nature Protocols^36. The hESCs were detached by 0.5 mM EDTA (Life Technologies, Camarillo, C, USA), seeded on VTN-N coated culture plates (Corning) and maintained for 48 hours in mTeSR 1 medium. Then, the medium was refreshed daily for all following steps. On days 1-2, the medium was replaced with fresh CDM-PVA (consisting of 0.5 g of PVA (Sigma) dissolved in 250 ml of IMDM/F-12, GlutaMAX (Invitrogen), 250 ml of IMDM (Invitrogen), 5 ml of chemically defined lipid concentrate (Invitrogen), 20 of thioglycerol 97% (Sigma), 350 of insulin (10 mg/ml; Roche), 250 of transferrin (30 mg/ml; Roche) plus Activin A (100 ng/ml; R&D), bFGF (80 ng/ml; R&D), BMP4 (10 ng/ml; R&D), and […] of LY-294002 (Promega). On day 3, the cells were differentiated in RPMI Medium supplemented with Activin A (100 ng/ml) and bFGF (80 ng/ml). On days 4-6, the cells were expanded in RPMI medium supplemented with Activin A (50 ng/ml). On day 7, the cells were passaged and re-plated 105,000 cells/cm^2 cells in VTN-N coated culture plates in RPMI containing Activin A (50 ng/ml) and Y-27632 2HCl (10 μM Selleck-chem, Houston, TX, USA and Munich, Germany). Then, the cells were maintained in RPMI+Activin A (50 ng/ml) on days 8-11. The cells were differentiated into the hepatocyte endoderm and analyzed following the drug treatments. The expression of alpha-fetoprotein (A0008, Dako, Santa Clara, CA, USA) was analyzed in the hepatocyte endoderm via immunofluorescence staining.

hPSCs = details: background, literature; cited from earlier work
hPSCs teratoma formation = details: background, literature; cited from earlier work
hESCs = test: Alamar blue assay, hESCs; format: cell-based, human; details: FIG. 12
Procedure: Alamar blue assay measured the relative cell number. In the cells, we added 1/10 of Alamar Blue Viability Assay reagent to the total volume of the mixture (Biotium; Fremont, CA, USA). The cells were incubated overnight at 37° C. The resulted were quantified by the measurement of optical density (OD) absorbance values at 570 nm and 600 nm, and the relative cell number was calculated.

PERK/AT4/DDIT3 pathway = details: through the PERK/AT4/DDIT3 pathway; literature; cited from earlier work

SMILES	cytotoxic effect (LDH release) in hESCs (hESCs (H9))	LDH assay positive, hESCs (hESCs (H9))	cytotoxicity (LDH release) in H9 hESC-MSCs (H9 hESC-MSCs)	LDH assay positive, hiPSCs (hiPSCs)	LDH assay positive, hepatocyte endoderm cells [1]	selective cell death (hPSCs)	teratoma formation in hPSCs (hPSCs teratoma formation)	cell death in hESCs (Alamar blue, relative cell number) (hESCs)	ER stress (PERK/AT4/DDIT3 pathway)
C[C@]12CC[C@H](O)C[C@H]1CC[C@@H]1[C@@H]2CC[C@]2(C)[C@@H](c3ccc(=O)oc3)CC[C@]12O [Bufalin, bufalin]	induced cytotoxicity	+++ (more than 70% positive cells)	do not induce cytotoxicity	+++ (more than 70% positive cells)	−/+ (10% positive cells)	–	–	–	–
O=c1c(O)c(-c2ccc(O)c(O)c2)oc2cc(O)cc(O)c12 [quercetin]	–	–	–	–	–	induced selective cell death	efficiently inhibited teratoma formation	–	–
C[C@]12CC[C@H](O)C[C@H]1CC[C@@H]1[C@@H]2CC[C@]2(C)[C@@H](C3=CC(=O)OC3)CC[C@]12O [Digitoxigenin, digitoxigenin]	–	+++ (more than 70% positive cells)	–	+++ (more than 70% positive cells)	−/+ (10% positive cells)	–	–	dose dependent manner	–
C[C@@H]1O[C@@H](O[C@H]2C[C@@H](O)[C@]3(CO)[C@H]4[C@H](O)C[C@]5(C)[C@@H](C6=CC(=O)OC6)CC[C@]5(O)[C@@H]4CC[C@]3(O)C2)[C@H](O)[C@H](O)[C@H]1O [Ouabain, ouabain]	–	+++ (more than 70% positive cells)	–	+++ (more than 70% positive cells)	−/+ (10% positive cells)	–	–	dose dependent manner	–
COCCn1c2c([n+](Cc3cnccn3)c1C)C(=O)c1ccccc1C2=O [YM155]	–	–	–	–	–	induced selective cell death	efficiently inhibited teratoma formation	–	–
O=C(NNc1ccccc1)c1ccncc1 [PluriSin #1]	–	–	–	–	–	–	prevented teratoma formation	–	–
C[C@H]1O[C@@H](O[C@H]2[C@@H](O)C[C@H](O[C@H]3[C@@H](O)C[C@H](O[C@H]4CC[C@@]5(C)[C@H](CC[C@@H]6[C@@H]5CC[C@]5(C)[C@@H](C7=CC(=O)OC7)CC[C@]65O)C4)O[C@@H]3C)O[C@@H]2C)C[C@H](O)[C@@H]1O [Digitoxin, digitoxin]	–	+++ (more than 70% positive cells)	–	+++ (more than 70% positive cells)	−/+ (10% positive cells)	–	–	dose dependent manner	–
CCCCCCCCC(=O)NCc1ccccc1 [JC011]	–	–	–	–	–	–	–	–	induced ER stress
C[C@@H]1O[C@@H](O[C@@H]2C=C3CC[C@@H]4[C@H](CC[C@]5(C)[C@@H](c6ccc(=O)oc6)CC[C@]45O)[C@@]3(C)CC2)[C@H](O)[C@H](O)[C@H]1O [Proscillaridin A, proscillaridin A]	induced cytotoxicity	+++ (more than 70% positive cells)	do not induce cytotoxicity	+++ (more than 70% positive cells)	−/+ (10% positive cells)	–	–	dose dependent manner	–
